Measured values as given in patent publication US12414997B2, “Brush prodrugs and uses thereof” (Massachusetts Institute of Technology, priority 2018, dated 2025).

Key:
[1] = system: orthotopic, syngeneic tumor; test: Efficacy of Brush prodrugs in orthotopic, syngeneic tumor (tumor volume, tumor weight, body weight); type: in vivo
Procedure: In FIGS. 5D to 5F, “iBET” refers to OTX-015.
Tumor volumes are calculated after measuring length and width using digital calipers. Tumors were also weighted, and the body weight was measured.

[2] = clinical; cited from earlier work

Cc1sc2c(c1C)C(c1ccc(Cl)cc1)=N[C@@H](CC(=O)Nc1ccc(O)cc1)c1nnc(C)n1-2 [OTX-015]
body weight loss ([1]; tolerated dose 100 mpk BID, PO (FIG. 5C)): minor weight loss
body weight loss ([1]; tolerated doses 5 mpk and 10 mpk (FIG. 5F)): minor weight loss
dose-limiting toxicity: anemia [2]: 91%
dose-limiting toxicity: neutropenia [2]: 51%
dose-limiting toxicity: thrombocytopenia [2]: 96%
